Experimental data from US20220348590A1, “CYCLOOXYGENASE-2 INHIBITORS AND USES THEREOF” (The Board Institute, Inc., priority 2019, published 2022).
Like-named read-outs stand apart in the source and are kept apart here.

What was measured:
ovine COX-1 (oCOX-1) = molecular target: T1, ovine COX-1 (oCOX-1) (Ovis aries, UniProt P05979); assay: LCMS-based COX-1 enzymatic inhibition assay (PGE2 quantification); assay type: biochemical
T1 construct: purchased Cayman Chemicals (Ann Arbor, Mich.)
T1 sequence (P05979 25-600): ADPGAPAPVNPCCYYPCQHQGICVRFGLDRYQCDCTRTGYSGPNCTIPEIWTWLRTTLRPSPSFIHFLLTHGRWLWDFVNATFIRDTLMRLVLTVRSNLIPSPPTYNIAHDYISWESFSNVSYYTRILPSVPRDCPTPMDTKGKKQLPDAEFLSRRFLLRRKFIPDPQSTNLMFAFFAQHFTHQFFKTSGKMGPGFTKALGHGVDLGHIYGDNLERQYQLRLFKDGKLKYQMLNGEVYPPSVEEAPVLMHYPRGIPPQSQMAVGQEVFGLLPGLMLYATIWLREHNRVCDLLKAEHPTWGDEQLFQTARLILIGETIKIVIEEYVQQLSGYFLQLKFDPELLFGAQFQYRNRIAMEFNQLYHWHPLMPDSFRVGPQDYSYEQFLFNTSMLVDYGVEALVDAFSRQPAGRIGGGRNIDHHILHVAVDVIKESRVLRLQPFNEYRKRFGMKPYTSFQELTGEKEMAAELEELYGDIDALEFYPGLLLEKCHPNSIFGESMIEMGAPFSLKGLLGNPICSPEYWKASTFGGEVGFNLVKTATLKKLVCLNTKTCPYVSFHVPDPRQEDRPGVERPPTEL
Description: We have adapted a previously reported cyclooxygenase enzymatic assay utilizing LCMS quantification of PGE2 as the product of COX-1 and COX2 catalyzed conversion of arachidonic acid to evaluate the binding properties of newly synthesized ligands [Cao, 2011]. These optimized and miniaturized (384-well plates) LCMS-based COX-1 and COX2 enzymatic assays enabled us to quickly evaluate newly synthesized ligands for COX2 binding affinity and selectivity vs COX-1. Using a shorter ligand-enzyme incubation time in the LCMS assay (2 minutes vs 10 minutes) also permitted us to prioritize ligands with faster binding kinetics. Considering the relatively slow on-rate kinetics of known coxibs, due to their 3-step binding mechanism [Marnett, 2009], we believe that optimizing this critical parameter will be key to the successful development of a COX2 PET tracer. Using these enzymatic assays, we have evaluated>200 newly synthesized ligands against COX2 and >20 ligands against COX-1. Another critical property necessary for a good PET radiotracer is to have low non-specific binding (NSB) to increase the free fraction and maximize the signal to noise ratio. This property can be evaluated using in-vitro protein binding assays, and we have now evaluated>50 newly synthesized ligands in mouse, rat and human plasma protein binding (PPB) assays as well as >15 ligands in a mouse brain protein binding (BPB) assay.
Ovine COX-1 (oCOX-1), ovine COX2 (oCOX2), human recombinant COX2 (hCOX2), arachidonic acid, PGE2, d4-PGD2, and […] (labeled with deuterium atoms at positions 3 and 4) were purchased from Cayman Chemicals (Ann Arbor, Mich.). The cofactors (−)epinephrine and hematin, and the COX inhibitors indomethacin, resveratrol and diclofenac were purchased from Sigma-Aldrich (St. Louis, Mo.). Celecoxib was purchased from 3B PharmaChem International (Wuhan, China). All organic solvents were HPLC grade or better and were purchased from Thermo Fisher (Hanover Park, Ill.). Formic acid was purchased from EMD Chemicals (San Diego, Calif.). Purified water was prepared by using a Millipore Milli-Q purification system (Millipore, Billerica, Mass.). All other chemicals and solvents were ACS reagent grade, unless stated otherwise.
In an Eppendorf tube, 146 μL of 100 mM Tris.HCl (pH 8.0) buffer, 2 μL of 100 μM hematin (co-factor) and 10 μL of 40 mM L-epinephrine (co-factor) were mixed at room temperature. Next, 20 μL of Tris.HCl (pH 8.0) buffer containing 0.2 μg COX2 or 0.1 μg COX-1 (approximately 1 unit of enzyme; 1 unit COX utilizes 1 nmol 02/mg/min at 37° C.) was added, and the solution was incubated at room temperature for 2 min. A 2 μL aliquot of the COX inhibitor in DMSO was added to the enzyme solution and preincubated at 37° C. for 10 min. Negative controls were identical except that 2 μL aliquots of DMSO without inhibitor were used instead.
Each COX reaction was initiated by adding 20 μL of arachidonic acid in Tris.HCl (pH 8.0) buffer to give a final concentration of 5 μM; and the reaction was terminated after 2 min by adding 20 μL of 2.0 M HCl. The surrogate standards d4-PGE2 and d4-PGD2 (10 μL aliquot of 50 ng/mL solution in methanol) were added to correct for errors or degradation during sample handling and for variation in injection volume or instrument response during LC-MS-MS. After 30 min, PGE2, PGD2 and their surrogate standards were extracted from each incubation mixture using 800 μL hexane/ethyl acetate (50:50, v/v). The organic phase was removed, evaporated to dryness, and reconstituted in 100 μL methanol/water (50:50, v/v) for analysis using LC-MS-MS.
The concentration of PGE2 in each sample was measured using LC-MS-MS, and the percent of COX inhibition by each test solution was determined by comparing the amount of PGE2 produced in the experiment with that produced in the negative control incubation. The formation of PGD2 was measured for quality control purposes, since the levels of PGD2 should be proportional to those of PGE2. […]

[1] = molecular target: T2, human recombinant COX2 (hCOX2) (UniProt P35354); assay: LCMS-based COX2 enzymatic inhibition assay (PGE2 quantification); assay type: biochemical; design: COX2 2 minutes pge2/pge2d4 area ratio Avg; other: 2 minutes; readout pge2/pge2d4 area ratio; average; COX2 2 minutes pge2/pge2d4 area ratio Avg; LLE; average LLE; COX2 2 minutes pge2 area (counts) Avg; readout pge2 area (counts); other: 2 min; "ovine COX2 (oCOX2), human recombinant COX2 (hCOX2)"; details: 2 minutes; for COX2 2 minutes pge2/pge2d4 area ratio Avg. LLE / COX2 2 minutes pge2 area (counts) Avg. LLE: average LLE; for IC50: average
T2 sequence (P35354 1-604): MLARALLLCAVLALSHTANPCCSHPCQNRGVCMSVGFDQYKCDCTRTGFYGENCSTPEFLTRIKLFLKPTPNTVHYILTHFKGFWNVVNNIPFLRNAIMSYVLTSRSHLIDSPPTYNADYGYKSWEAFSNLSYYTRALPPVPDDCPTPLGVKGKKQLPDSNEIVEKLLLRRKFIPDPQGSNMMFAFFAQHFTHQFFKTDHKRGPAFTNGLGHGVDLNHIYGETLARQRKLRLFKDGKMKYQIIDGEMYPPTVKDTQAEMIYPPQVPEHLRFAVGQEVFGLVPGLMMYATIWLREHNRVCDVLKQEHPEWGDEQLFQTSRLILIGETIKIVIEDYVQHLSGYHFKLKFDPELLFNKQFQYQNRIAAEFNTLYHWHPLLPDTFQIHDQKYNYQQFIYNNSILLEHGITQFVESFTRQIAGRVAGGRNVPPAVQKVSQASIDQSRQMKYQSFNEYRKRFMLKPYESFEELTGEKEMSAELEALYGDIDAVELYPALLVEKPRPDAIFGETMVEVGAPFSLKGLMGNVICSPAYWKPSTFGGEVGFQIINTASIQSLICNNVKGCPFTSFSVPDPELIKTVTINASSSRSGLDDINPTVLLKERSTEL
Summary of the method: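 Ovine COX-1 (0.1 μg) or human recombinant COX2 (0.2 μg) in 100 mM Tris.HCl pH 8.0 with hematin and epinephrine, preincubated with inhibitor 10 min at 37 °C. Reaction with 5 μM arachidonic acid stopped after 2 min with HCl; PGE2 quantified by LC-MS-MS. IC50 from 12 concentrations in triplicate.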

[2] = 10 minutes, head of this section not shown, inferred
[3] = 10 minutes, readout pge2/pge2d4 area ratio, average, read-out: COX1 10 minutes pge2/pge2d4 area ratio Avg. IC50
[4] = readout pge2/pge2d4 area ratio, read-out: COX2 2 minutes pge2/pge2d4 area ratio Avg. IC50
[5] = readout pge2 area (counts), read-out: COX2 2 minutes pge2 area (counts) Avg. IC50
[6] = 10 minutes, pge2 area (counts), head of this section not shown, inferred
[7] = 10 minutes, pge2 area (counts), head of this section not shown, inferred, read-out: COX1 10 minutes pge2 area (counts) Avg. IC50

| Compound | COX1 10 minutes pge2/pge2d4 area ratio Avg. LLE (ovine COX-1 (oCOX-1); [2]) | IC50 (ovine COX-1 (oCOX-1); [3]) [nM] | COX2 2 minutes pge2/pge2d4 area ratio Avg. LLE ([1]; readout pge2/pge2d4 area ratio) | IC50 [1, 4] [nM] | COX2 2 minutes pge2 area (counts) Avg. LLE ([1]; readout pge2 area (counts)) | IC50 [1, 5] [nM] | COX1 10 minutes pge2 area (counts) Avg. LLE (ovine COX-1 (oCOX-1); [6]) | IC50 (ovine COX-1 (oCOX-1); [7]) [nM] | IC50 (ovine COX-1 (oCOX-1)) [nM] |
| --- | --- | --- | --- | --- | --- | --- | --- | --- | --- |
| CS(=O)(=O)c1ccc(-c2cnc3ccn(Cc4ccco4)c3n2)cc1 [Compound 82] | 1.865 | 17200 | 4.353 | 57.3 | 4.328 | 63.3 | 1.853 | 17600 |  |
| CS(=O)(=O)c1ccc(-n2ccc3ccc(NCc4ccoc4)nc32)cc1 [Compound 83] | 0.284 |  | 3.241 | 57.9 | 3.278 | 53.5 |  |  | 52000 |
| CSc1ccc(-c2cncc(NCc3cccs3)n2)cc1 [Compound 84] |  |  | 3.898 | 58 | 4.023 | 52.5 | 2.207 | 1790 |  |
| Cc1coc(CNc2cccc(-c3ccc(S(C)(=O)=O)cc3)n2)c1 [Compound 85] | 1.134 |  | 4.23 | 58.1 | 3.951 | 115 | 1.134 |  | 52000 |
| CS(=O)(=O)c1ccc(-c2cccc(NCc3ccns3)n2)cc1 [Compound 87] | 1.97 | 42600 | 4.854 | 61.9 | 4.881 | 56.5 | 1.899 | 50200 |  |
| COc1ccc(NCc2cccs2)nc1-c1ccc(S(C)(=O)=O)nc1 [Compound 88] | 2.306 | 16000 | 4.709 | 63.4 | 4.67 | 69.3 | 2.306 | 16000 |  |
| Cc1ccoc1CNc1cccc(-c2ccc(S(C)(=O)=O)cc2)n1 [Compound 91] | 1.267 | 38300 | 4.034 | 68.6 | 4.0886 | 65.3 | 1.134 |  |  |

Now those with a lower IC50 [1, 4], led by results:

| COX1 10 minutes pge2/pge2d4 area ratio Avg. LLE (ovine COX-1 (oCOX-1); [2]) | IC50 (ovine COX-1 (oCOX-1); [3]) [nM] | COX2 2 minutes pge2/pge2d4 area ratio Avg. LLE ([1]; readout pge2/pge2d4 area ratio) | IC50 [1, 4] [nM] | COX2 2 minutes pge2 area (counts) Avg. LLE ([1]; readout pge2 area (counts)) | IC50 [1, 5] [nM] | COX1 10 minutes pge2 area (counts) Avg. LLE (ovine COX-1 (oCOX-1); [6]) | IC50 (ovine COX-1 (oCOX-1); [7]) [nM] | Compound | IC50 (ovine COX-1 (oCOX-1)) [nM] |
| --- | --- | --- | --- | --- | --- | --- | --- | --- | --- |
| 0.04679 | 49300 | 3.165 | 41.2 | 3.167 | 41.6 |  |  | CS(=O)(=O)c1ccc(-c2ncc3ccn(Cc4cccs4)c3n2)cc1 [Compound 71] |  |
| 0.2541 | 17600 | 2.94 | 41.4 | 2.995 | 34.2 | 0.02014 | 30200 | CS(=O)(=O)c1ccc(-n2ccc3ccc(Nc4ccccc4)nc32)cc1 [Compound 72] |  |
| 2.183 | 15000 | 4.8 | 42.9 | 4.74 | 45.2 | 2.127 | 17100 | CS(=O)(=O)c1ccc(-c2cccc(NCc3ccc[nH]3)n2)cc1 [Compound 73] |  |
| 1.461 | 31600 | 4.278 | 48.6 | 4.291 | 48.5 |  |  | CS(=O)(=O)c1ccc(-c2nc(NCc3cccs3)cnc2C(F)(F)F)cc1 [Compound 76] |  |
|  |  | 4.259 | 48.6 | 4.246 | 53.8 | 1.289 | 40900 | Cn1cccc1CNc1cccc(-c2ccc(S(C)(=O)=O)cc2)n1 [Compound 77] |  |
|  | 33500 |  | 49.4 |  | 43.6 |  |  | CS(=O)(=O)c1ccc(-c2cncc(SCc3ccco3)n2)cc1 [Compound 78] |  |
| 0.4422 | 37800 | 3.33 | 52 | 3.382 | 45.5 |  |  | CS(=O)(=O)c1ccc(-n2ccc3cnc(NCc4cccs4)nc32)cc1 [Compound 80] |  |
